Measurements taken from patent publication US20260007680A1, “Compounds and Their Use as PDE4 Activators” (Mironid Limited, priority 2022, published 2026).

System: m-IMCD3 cells
Experiment: Inhibition of PGE2-stimulated in vitro cyst formation in 3D culture of m-IMCD3 cells (Experiment 4)
Assay type: cell-based, mouse
Settings: for activity at 10 µM: Mus musculus, mIMCD3, 144 h, 10 μM test compound, mean cyst area compared to 100% for (DMSO + PGE2) and 0% for DMSO control, read-out: % Cyst area* after incubation with 10 μM test compound
Description: HEK 293 and MDCK cells (Public Health England, Cell Culture Collections) were maintained in Dulbecco's Modified Eagle's Medium (DMEM) supplemented with 10% (v/v) fetal bovine serum (FBS) (Seralab), 2 mM L-glutamine and 100 U/ml penicillin streptomycin cocktail (ThermoFisher); termed complete media. Clonal HEK 293 cell lines were maintained in complete media supplemented with 0.6 mg/mL G418 (Enzo Life Sciences). Mouse inner medullary collecting duct (m-IMCD3) cells [American Type Culture Collection (ATCC)] were maintained in media consisting of DMEM/Hams F-12 50/50 Mix (DMEM F12; Corning) supplemented with penicillin streptomycin cocktail (100 U/ml) and FBS (10% v/v) (DMEM F12-10% FBS).
The mouse Inner Medullary Collecting Duct cell line (m-IMCD3) spontaneously forms cystic spheroids in 3D culture with a Type 1 collagen/Matrigel extracellular matrix. This process can be stimulated with agents which raise intracellular cAMP and is used as an in vitro model for the formation of cystic structures in the kidneys of patients with ADPKD.
Rat Collagen I (Fisher Scientific) is prepared on ice by neutralising with 1 M NaOH and diluting with a 2×volume of DMEM/F12+10% FBS. This is mixed 1:1.1 with ice cold Matrigel (Corning) for coating plates (coating mix), and 1:0.93 with Matrigel for cell plating (plating mix).
The assay is conducted in the wells of a 96-well plate culture dish using a total volume of 130 μL of collagen/Matrigel/DMEM F12-10% FBS suspension in growth media for each matrix plug per individual well. Initially, 30 μL of collagen/Matrigel/DMEM F12-10% FBS (coating mix) is added into the well of a 96 well plate and the collagen is set to a gel by incubating at 37° C. for at least 15 minutes. A second layer of 100 μL collagen/Matrigel suspension (plating mix) containing m-IMCD3 cells (2.75×10^6 m-IMCD3 cells per 96-well plate) is layered over the coating mix and the collagen/Matrigel/cell mix again set to a gel by incubating at 37° C. Cell cultures are maintained at 37° C. in an atmosphere of 5% CO2, 95% air.
Between 18 and 24 h after plating, test compound(s) as DMSO stock solutions [0.1% (v/v) final DMSO concentration] and PGE2 (100 nM final concentration) in DMEM F12-10% FBS are added in quadruplicate wells per condition. Media, together with the test compound and PGE2 are replenished after 2 or 3 days. After 6 days of culture z stack images of the wells are captured using the Nikon Eclipse Ti2-E microscope. Nikon General Analysis software is used to measure the following parameters in each well: the mean cyst area, the number of cysts, and the total cyst area.
PDE4 long form activators inhibited in vitro cyst formation in m-IMCD3 cells. Data are shown in FIG. 2 and Table 4 as mean cyst area (%), compared to 100% for (DMSO+PGE2) and 0% for DMSO control.

Row | SMILES | activity at 10 µM [%] | inhibition of PGE2-stimulated cyst formation in m-IMCD3 cells (FIG. 2, text) (3D culture)
1 | CN1CCN(c2cc3ncc(C(=O)N[C@H]4CCOc5ccccc54)cn3n2)CC1 [Example 69, (S)—N-(chroman-4-yl)-2-(4-methylpiperazin-1-yl)pyrazolo[1,5-a]pyrimidine-6-carboxamide] | 7 | –
2 | CCN1CCN(c2cc3ncc(C(=O)NC4CCCCC4)cn3n2)CC1 [Example 73, N-cyclohexyl-2-(4-ethylpiperazin-1-yl)pyrazolo[1,5-a]pyrimidine-6-carboxamide] | -3 | –
3 | Cc1ncccc1-c1nc2cc(C(=O)N[C@H]3CCOc4ccccc43)ccc2n1C [Example 22, (S)—N-(chroman-4-yl)-1-methyl-2-(2-methylpyridin-3-yl)-1H-benzo[d]imidazole-5-carboxamide] | 18 | –
4 | O=C(N[C@H]1CCOc2ccccc21)c1ccc2nc(N3CCNCC3)nn2c1 [Example 40, (S)—N-(chroman-4-yl)-2-(piperazin-1-yl)-[1,2,4]triazolo[1,5-a]pyridine-6-carboxamide] | 11 | –
5 | CC(C)N1CCN(c2nc3cc(C(=O)N[C@H]4CCOc5ccccc54)ccn3n2)CC1 [Example 61, (S)—N-(chroman-4-yl)-2-(4-isopropylpiperazin-1-yl)-[1,2,4]triazolo[1,5-a]pyridine-7-carboxamide] | 10 | –
6 | Cc1ccncc1-c1nc2cc(C(=O)N[C@H]3CCOc4ccccc43)ccc2[nH]1 [Example 1, (S)—N-(chroman-4-yl)-2-(4-methylpyridin-3-yl)-1H-benzo[d]imidazole-5-carboxamide] | 26 | –
7 | O=C(NCc1ccc(F)cc1)c1cnc2cc(C3CCNCC3)nn2c1 [Example 89, N-(4-fluorobenzyl)-2-(piperidin-4-yl)pyrazolo[1,5-a]pyrimidine-6-carboxamide] | -3 | –
8 | CCN1CCN(c2nc3cc(C(=O)N[C@H]4CCOc5ccccc54)ccc3o2)CC1 [Example 102, (S)—N-(chroman-4-yl)-2-(4-ethylpiperazin-1-yl)benzo[d]oxazole-5-carboxamide] | 8 | –
9 | CCN1CCN(c2nc3cc(C(=O)N[C@H]4CCOc5ccccc54)ccn3n2)CC1 [Example 60, (S)—N-(chroman-4-yl)-2-(4-ethylpiperazin-1-yl)-[1,2,4]triazolo[1,5-a]pyridine-7-carboxamide] | 18 | –
10 | Cc1c(C(=O)NC2CCC(F)(F)CC2)cnc2cc(C3CCNCC3)nn12 [Example 91, N-(4,4-difluorocyclohexyl)-7-methyl-2-(piperidin-4-yl)pyrazolo[1,5-a]pyrimidine-6-carboxamide] | 5 | –
11 | O=C(NC1CCCC1)c1ccc2nc(N3C4CCC3CNC4)cn2c1 [Example 67, 2-(3,8-diazabicyclo[3.2.1]octan-8-yl)-N-cyclopentylimidazo[1,2-a]pyridine-6-carboxamide] | 27 | –
12 | Cc1ncccc1-c1nc2cc(C(=O)N[C@H]3CCOc4ccccc43)ccc2[nH]1 [Example 3, (S)—N-(chroman-4-yl)-2-(2-methylpyridin-3-yl)-1H-benzo[d]imidazole-5-carboxamide] | 20 | –
13 | O=C(N[C@H]1CCc2ccccc21)c1ccn2nc(N3CCNCC3)nc2c1 [Example 62, (S)—N-(2,3-dihydro-1H-inden-1-yl)-2-(piperazin-1-yl)-[1,2,4]triazolo[1,5-a]pyridine-7-carboxamide] | 0 | –
14 | O=C(N[C@H]1CCOc2ccccc21)c1ccc2oc(N3CCN(CCO)CC3)nc2c1 [Example 106, (S)—N-(chroman-4-yl)-2-(4-(2-hydroxyethyl)piperazin-1-yl)benzo[d]oxazole-5-carboxamide] | -3 | –
15 | CCN1CCC(c2nc3ccc(C(=O)N[C@H]4CCOc5ccccc54)cn3n2)CC1 [Example 51, (S)—N-(chroman-4-yl)-2-(1-ethylpiperidin-4-yl)-[1,2,4]triazolo[1,5-a]pyridine-6-carboxamide] | 6 | concentration-dependent inhibition
16 | CN1CCN(c2cc3ncc(C(=O)NC4CCCC4)cn3n2)CC1 [Example 76, N-cyclopentyl-2-(4-methylpiperazin-1-yl)pyrazolo[1,5-a]pyrimidine-6-carboxamide] | 9 | –

Row | SMILES | activity at 10 µM [%] | inhibition of PGE2-stimulated cyst formation in m-IMCD3 cells (FIG. 2, text) (3D culture)
17 | O=C(N[C@H]1CCc2ccccc21)c1ccc2nc(N3CCNCC3)nn2c1 [Example 48, (S)—N-(2,3-dihydro-1H-inden-1-yl)-2-(piperazin-1-yl)-[1,2,4]triazolo[1,5-a]pyridine-6-carboxamide] | 22 | –
18 | CCN1CCN(c2cc3ncc(C(=O)N[C@H]4CCOc5ccccc54)cn3n2)CC1 [Example 70, (S)—N-(chroman-4-yl)-2-(4-ethylpiperazin-1-y)pyrazolo[1,5-a]pyrimidine-6-carboxamide] | 5 | –
19 | CN1CCN(c2nc3cc(C(=O)N[C@H]4CCc5ccccc54)ccn3n2)CC1 [Example 64, (S)—N-(2,3-dihydro-1H-inden-1-yl)-2-(4-methylpiperazin-1-yl)-[1,2,4]triazolo[1,5-a]pyridine-7-carboxamide] | 1 | –
20 | CN1CCC(c2nc3cc(C(=O)NC4CCCC4)ccc3o2)CC1 [Example 98, N-cyclopentyl-2-(1-methylpiperidin-4-yl)benzo[d]oxazole-5-carboxamide] | -3 | –
21 | CCN1CCC(c2cc3ncc(C(=O)NC4CCC(F)(F)CC4)c(C)n3n2)CC1 [Example 94, N-(4,4-difluorocyclohexyl)-2-(1-ethylpiperidin-4-yl)-7-methylpyrazolo[1,5-a]pyrimidine-6-carboxamide] | 13 | –
22 | Cn1c(N2CCNCC2)nc2cc(C(=O)N[C@H]3CCOc4ccccc43)ccc21 [Example 33, (S)—N-(chroman-4-yl)-1-methyl-2-(piperazin-1-yl)-1H-benzo[d]imidazole-5-carboxamide] | 19 | –
23 | CN1CC2CCC(C1)N2c1cc2ncc(C(=O)NC3CCCC3)cn2n1 [Example 81, N-cyclopentyl-2-(3-methyl-3,8-diazabicyclo[3.2.1]octan-8-yl)pvrazolo[1,5-a]pyrimidine-6-carboxamide] | -3 | –
24 | Cc1ncccc1-c1nc2cc(C(=O)N[C@H]3CCOc4ccccc43)ccn2n1 [Example 52, (S)—N-(chroman-4-yl)-2-(2-methylpyridin-3-yl)-[1,2,4]triazolo[1,5-a]pyridine-7-carboxamide] | 19 | –
25 | O=C(NC1CCCC1)c1cnc2cc(N3C4CCC3CNC4)sc2c1 [Example 121, 2-(3,8-diazabicyclo[3.2.1]octan-8-yl)-N-cyclopentylthieno[3,2-b]pyridine-6-carboxamide] | 3 | –
26 | O=C(NC1CCCC1)c1ccc2oc(N3CCNCC3)nc2c1 [Example 101, N-cyclopentyl-2-(piperazin-1-yl)benzo[d]oxazole-5-carboxamide] | 21 | –
27 | Cc1ccc(-c2nc3cc(C(=O)N[C@H]4CCOc5ccccc54)ccc3n2C)cn1 [Example 21, (S)—N-(chroman-4-yl)-1-methyl-2-(6-methylpyridin-3-yl)-1H-benzo[d]imidazole-5-carboxamide] | 3 | –
28 | Cc1c(C(=O)NC2CCC(F)(F)CC2)cnc2cc(C3CCN(C)CC3)nn12 [Example 96, N-(4,4-difluorocyclohexyl)-7-methyl-2-(1-methylpiperidin-4-yl)pyrazolo[1,5-a]pyrimidine-6-carboxamide] | 11 | –
29 | Cc1c(C(=O)N[C@H]2CCOc3ccccc32)cnc2cc(C3CCN(C)CC3)nn12 [Example 95, N-[(4S)-3,4-dihydro-2H-1-benzopyran-4-yl]-7-methyl-2-(1-methylpiperidin-4-yl)pyrazolo[1,5-a]pyrimidine-6-carboxamide] | 13 | –
30 | CN1CCC(c2cc3ncc(C(=O)N[C@H]4CCOc5ccccc54)cn3n2)CC1 [Example 88, (S)—N-(chroman-4-yl)-2-(1-methylpiperidin-4-yl)pyrazolo[1,5-a]pyrimidine-6-carboxamide] | 15 | –
31 | O=C(N[C@H]1CCOc2ccccc21)c1cnc2cc(N3CCNCC3)nn2c1 [Example 68, (S)—N-(chroman-4-yl)-2-(piperazin-1-yl)pyrazolo[1,5-a]pyrimidine-6-carboxamide] | 9 | –
